According to paper PMC10718076, “1,2-Disubstituted bicyclo[2.1.1]hexanes as saturated bioisosteres of ortho-substituted benzene” (Chemical Science, 2023):
In brackets after ≈: the same amount, converted by molar mass. Where a name gives a salt, the structure may show the parent alone. Read-outs that look alike come from different tables or passages of the source.

What was measured:
[1] = in vitro; conditions: both, human
[2] = Metabolic stability in human liver microsomes; conditions: both; for remaining at 40 min, 2 µM: Mean of 2, 40 min; for remaining at 25 min, 2 µM: Mean of 2, 25 min; for k el at 2 µM: pH 7.4, kel; for half-life at 2 µM: pH 7.4, t1/2, Table S6, 1st batch
[3] = Kinetic solubility in phosphate-buffered saline, pH 7.4; type: physicochemical; conditions: 25 °C, pH 7.4, aqueous buffer, kinetic from dmso stock; for solubility at 2 h: PBS solubility
Description: Analysis of Aqueous Solubility […]
compound (Ondansetron) were assessed for kinetic solubility in phosphate -buffered saline, pH 7.4.
Phosphate buffered saline, pH 7.4 (Sigma -Aldrich, USA; Cat #P3813) […]
MultiScreen HTS 96 Well Filter Plates (Millipore, Ireland; Cat # MSSLBPC10) […]
Matrix Multichannel Electronic Pipette 2-125 μL, 5-250 μL, 15-1250 μL (Thermo Scientific, USA; […]
Vacuum pump (Millipore, USA; Model # XX5500000)
The measurements were performed using SpectraMax Plus reader in UV -Vis mode. Acquisition and […]
The measurements were performed using SpectraMax Paradigm reader in UV-Vis mode.
Acquisition and analysis of the data were performed using SoftMax Pro v.5.4 (Molecular Devices) […]
Kinetic solubility assay was performed according to the Enamine’s aqueous solubility SOP. Briefly, using a 20 mM stock solution of the compound in 100% DMSO dilutions were prepared to a theoretical concentration of 400 μM in duplicates in phosphate-buffered saline pH 7.4 […]
compound dilutions in PBS were further allowed to equilibrate at 25 °C on a thermostatic shaker for two hours and then filtered through HTS filter plates using a vacuum manifold. The filtrates of test compounds were diluted 2-fold with acetonitrile with 2% DMSO before measuring.
In parallel, compound dilutions in 50% acetonitrile/PBS were prepared to theoretical concentrations […]
calibration curves. Ondansetron was used as reference compound to control proper assay performance. 200 μl of each sample was transferred to 96-well plate and measured in 230-550 nm range with 5 nm step. The effective range of this assay is approximately 2-400 μM and the […]
The concentrations of compounds in PBS filtrate are calculated using a dedicated Microsoft Excel calculation script. Proper absorbance wavelengths for calculations are selected for each compound manually based on absorbance maximums (absolute absorbance unit values for the minimum and maximum concentration points within the 0 – 3 OD range). Each final dataset is visually evaluated by the operator, and goodness of fit (R2) is calculated for each calibration curve. […]
samples were diluted 2-fold with acetonitrile containing internal standard and were analyzed using the HPLC system coupled with a tandem mass spectrometer. The effective range of this assay is […]

[4] = system: Aspergillus niger (strain VURV-F 822); test: Antifungal disk diffusion method; type: cell-based
Description: Antifungal activity of the synthetic compounds using disk diffusion methods The compounds were tested for plant pathogens Aspergillus niger (strain VURV-F 822), which was received from Culture collection of microorganisms of Crop Research Institute (Prague, Czech […]
The synthetic compounds' antifungal activity was evaluated using a disk diffusion assay for testing filamentous fungi (CLSI M51-A) and broth microdilution antifungal susceptibility testing (EUCAST E.DEF 7.3.1; CLSI M38-A2)
[CLSI M51-A. Method for Antifungal Disk Diffusion Susceptibility Testing of Nondermatophyte Filamentous Fungi; Approved Guideline.CLSI document M51-A. Wayne, PA:
Clinical and Laboratory Standards Institute; 2010. This method is standardized for Altenaria, Aspergillus, Bipolaris, Fusarium, order Mucorales, etc.]
[CLSI M38-A2. 2008. Reference method for broth dilution antifungal susceptibility testing of filamentous fungi, 2nd ed Approved standard M38 -A2 Clinical and Laboratory Standards Institute, […]
Antifungal disk diffusion method
The solutions of fungicides and their analogues were diluted in dimethyl sulfoxide (DMSO) to […]
mg/mL for each test component. Sterile paper disks (ASPECT, Ukraine) were soaked with 10 μl of a solution of the appropriate fungicide from the highest concentration to the lowest.
The fungal strains were cultured on Petri dishes with Saburo dextrose agar (Condalab, Spain) and incubated at 25 °C for 5 days. Sterile Dulbecco's phosphate -buffered saline (DPBS) with 0,1 % Tween 20 was used to cover colonies of fungus for obtained conidia l suspension. Suspension of conidia was adjusted to inoculums 2×10^5 conidia/mL by sterile DPBS.
For antifungal disk diffusion test we used square Petri dishes (FALCON A Corning Brand, USA). The conidial suspension (0.5 mL) was added to Petri dishes with Saburo dextrose agar. The suspension was evenly distributed over the surface of the nutrient medium with a glass spatula.
After the surface of the inoculated medium was dry, the disks with different concentrations of testing compounds were added to the Petri dishes. Each compound was tested in triplicate at different concentrations. Growth control was a disk with 10 μl of DMSO, which was used for test […]
Petri dishes incubated at 25 °C for 72 h. The test compounds at known concentrati on into contact with an inoculated medium then exert a growth-inhibiting effect then a clear zone (the zone of […]
inhibition) appears around the test product. The diameter of a clear zone around the well is […]
If the fungal strain is susceptible to the antifungal agent, then a zone of inhibition appears on the agar plate. If it is resistant to the test compound, then no zone is evident. The size of the zone of inhibition is usually related to the level of antifungal activity present in the compound – a larger […]
The growth rate of all strains for each concentration of test compounds was determined visually and compared with the growth of control.
Broth microdilution antifungal susceptibility testing
A 96-well CELLSTAR plate (sterile, flat-bottomed, polystyrene, transparent) was used to determine MIC by broth microdilution method. Also, dabble straight RPMI-1640 medium with 2% glucose (2x RPMI 2%G) was used for this method. Spore suspension for plate inoculation was prepared according to the method described above for the disc diffusion method.
The each well in the plate contained 49 μl of medium (2x RPMI 2%G), 50 μl of inoculum (prepared in DPBS) and 1 μl of the stock solution of the test substance. Positive control wells contained 50 μl medium and 50 μl inoculum, and sterile control wells contained 50 μl medium and […]
To determine the MIC by the microdilution method, a series of stock solutions of fungicides and their analogues in DMSO with the following concentrations were prepared: 3.2 mg/mL, 1.6 mg/mL, […]
1 μl of the stock solutions of the test substances were added to each well to obtain the following […]
Immediately after adding all the components to the plates, the optical density was measured at […]

[5] = physchem
Description: Determination of Distribution Coefficient (LogD, pH 7.4)
coefficient (or LogD) is a logarithm of the ratio of drug concentrations in two immiscible solvents,
typically pH-buffered water and n-octanol. It is a measure of hydrophobic/hydrophilic properties of
a given molecule. The partition of test compounds is determined using a shake-flask method, which
involves mixing of a certain amount of the solute of interest in defined volumes of n-octanol and an
aqueous buffer of choice followed by equilibration of the mixture by incubation with efficient
mixing. Then, the distribution of the compounds in each solvent was controlled using LC-MS/MS.
Phosphate buffered saline, tablet (Sigma-Aldrich, USA; Cat # P4417)
Acetic acid (Enamine, Ukraine)
1.1 mL microtubes in microracks, pipettor tips (Thermo Scientific, USA).
National Scientific MicroTube™ Rack (Thermo Fisher Scientific, USA; Cat # TN094612R)
Gradient HPLC system (Shimadzu, Japan)
Triple quadrapole mass-detector API 3000 with TurboIonSpray Ion Source (AB Sciex, Canada)
MTR22 Multi Mix Rotator (UNICO, USA)
Laboratory Centrifuge, Sigma 4-15C, Qiagen (SIGMA GmbH, Germany)
Water purification system Millipore Milli-Q Gradient A10 (Millipore, France)
All measurements were performed using a Shimadzu Prominence HPLC system including a
vacuum degasser, gradient pumps, a reverse phase column, a column oven and an autosampler.
Mass spectrometric analysis was performed using an API 4000 QTRAP mass spectrometer from
Applied Biosystems/MDS Sciex (AB Sciex) with Turbo V ion source and TurboIonspray
interface. The TurboIonSpray ion source was used in both positive and negative ion modes.
Acquisition and analysis of the data were performed using Analyst 1.6.3 software.
Incubations were carried out in Eppendorf-type polypropylene microtubes in triplicates. A 2.5 μL
aliquot of 20 mM DMSO stock of a test compound was added into the previously mutually
saturated mixture containing 500 μL of PBS (pH 7.4) and 500 μL of octanol. The solution was
allowed to mix in a rotator for 1 hour at 30 rpm. Phase separation was assured by centrifugation for
2 min at 6000 rpm. The octanol phase was diluted 100-fold with 40% acetonitrile, and the aqueous
phase (PBS buffer) was diluted 10-fold with 40% acetonitrile. The samples (both phases) were
analyzed using an HPLC system coupled with a tandem mass spectrometer.
Calculations of the partition ratios were carried out using the equation below.
where: – peak area of the analyte in octanol phase
– peak area of the analyte in PBS buffer
– dilution coefficient for octanol phase dp – dilution coefficient for aqueous phase

[6] = Table S5, injection 1, octanol/PBS pH 7.4
[7] = Table S5, injection 2, octanol/PBS pH 7.4
[8] = Table S5, injection 3, octanol/PBS pH 7.4
[9] = liver microsomes (pooled), pH 7.4, % Remaining without cofactor, no NADPH cofactor, Table S6, 1st batch
[10] = liver microsomes (pooled), pH 7.4, % Remaining, Mean of 2, 7 min, Table S6, 1st batch
[11] = liver microsomes (pooled), pH 7.4, % Remaining, Mean of 2, 15 min, Table S6, 1st batch
[12] = liver microsomes (pooled), pH 7.4, % Remaining, Table S6, 1st batch
[13] = liver microsomes (pooled), Table S6, 1st batch

| Compound | solubility kinetic at 2 h [3] [µM] | D [6] | D [7] | D [8] | solubility at 2 h ([3]; pH 7.4, Incubation 1) [µM] | solubility at 2 h ([3]; pH 7.4, Incubation 2) [µM] | solubility at 2 h ([3]; pH 7.4, Mean) [µM] | logD at 1 h ([5]; pH 7.4, LogD, pH 7.4) | remaining at 40 min, 2 µM [2, 9] [%] | remaining at […], 2 µM [2, 10] [%] | remaining at […], 2 µM [2, 11] [%] | remaining at 25 min, 2 µM [2, 12] [%] | remaining at 40 min, 2 µM [2, 12] [%] | k el at 2 µM [2, 13] [s⁻¹] | half-life at 2 µM ([2]; liver microsomes (pooled)) [h] | other results |
| --- | --- | --- | --- | --- | --- | --- | --- | --- | --- | --- | --- | --- | --- | --- | --- | --- |
| CC(C)NCC(O)COc1cccc2ccccc12 (racemic) [Propranolol, (+,-) Propranolol hydrochloride] |  |  |  |  |  |  |  |  |  |  |  |  |  |  |  | remaining at 40 min, 2 µM ([1]; microsomes, pH 7.4, % Remaining, Mean of 2): 68%; half-life at 2 µM ([1]; microsomes, pH 7.4, t1/2): 1.18 h; half-life at 2 µM ([1]; s9, pH 7.4, t1/2): ~5.93 h; remaining at 40 min, 2 µM ([2]; liver microsomes (pooled), pH 7.4, % Remaining, Table S7, 2st batch): 58% |
| O=C(Nc1ccccc1-c1ccc(Cl)cc1)c1cccnc1Cl [Boscalid, boscalid] | 11 (≈ 3.78 µg/mL) | 3.62E+03 | 2.86E+03 | 4.07E+03 |  |  |  |  |  |  |  |  |  |  |  | zone of inhibition at 4 µg/mL ([4]; Concentration 0.004 mg/mL, 0 = absence of antifungal activity, Boscalid, Fluxapyroxad, Bixafen marked st, read-out: Diameter of inhibition zone): 7.5 ± 1 mm; zone of inhibition at 8 µg/mL ([4]; Concentration 0.008 mg/mL, 0 = absence of antifungal activity, read-out: Diameter of inhibition zone): 8.5 ± 1 mm; zone of inhibition at 16 µg/mL ([4]; Concentration 0.016 mg/mL, 0 = absence of antifungal activity, read-out: Diameter of inhibition zone): 10.5 ± 1.5 mm; zone of inhibition at 30 µg/mL ([4]; Concentration 0.03 mg/mL, 0 = absence of antifungal activity, (±)-29 marked st, read-out: Diameter of inhibition zone): 13.5 ± 2 mm; zone of inhibition at 60 µg/mL ([4]; Concentration 0.06 mg/mL, 0 = absence of antifungal activity, Fluxapyroxad, Bixafen, (±)-29 marked st, read-out: Diameter of inhibition zone): 17.8 ± 2.25 mm; zone of inhibition at 120 µg/mL ([4]; Concentration 0.12 mg/mL, (±)-28 marked st (static growth), read-out: Diameter of inhibition zone): 21.2 ± 2.25 mm; zone of inhibition at 250 µg/mL ([4]; Concentration 0.25 mg/mL, (±)-28 marked st (static growth, secondary growth of mycelium), read-out: Diameter of inhibition zone): 20.2 ± 1 mm; zone of inhibition at 500 µg/mL ([4]; Concentration 0.5 mg/mL, 10 μl per disk, read-out: Diameter of inhibition zone): 26 ± 2.5 mm; zone of inhibition at 1000 µg/mL ([4]; Concentration 1 mg/mL, 10 μl per disk, read-out: Diameter of inhibition zone): 29 ± 1.5 mm; zone of inhibition at 2000 µg/mL ([4]; Concentration 2 mg/mL, 10 μl per disk, read-out: Diameter of inhibition zone): 34.2 ± 0.75 mm; MIC ([4]; disk diffusion, small zones of inhibition with secondary mycelial growth, read-out: minimum inhibitory concentration): 4 µg/mL (≈ 11.7 µM) |
| Cc1nc2c([nH]1)CCN(C(=O)c1ccc(NC(=O)C3CC4CC3(c3ccccc3)C4)cc1)c1ccccc1-2 (stereo not shown) [Compound 26] | 14 (≈ 7.04 µg/mL) | 9.55E+03 | 1.25E+04 | 1.36E+04 | 15 (≈ 7.54 µg/mL) | 14 (≈ 7.04 µg/mL) | 14 (≈ 7.04 µg/mL) | 3.98 | 109 | 81 | 81 | 83 | 76 | 8.33e-05 | 2.25 | microsomal CLint at 2 μM ([2]; human liver microsomes (pooled), pH 7.4): 12 µL/min/mg |
| O=C(NC1CCN(CCCCC2(C(=O)NCC(F)(F)F)c3ccccc3-c3ccccc32)CC1)C1CC2CC1(c1ccc(C(F)(F)F)cc1)C2 (stereo not shown) [Compound 27] | 18 (≈ 12.6 µg/mL) | 7.79E+03 | 7.46E+03 | 8.20E+03 | 18 (≈ 12.6 µg/mL) | 19 (≈ 13.3 µg/mL) | 18 (≈ 12.6 µg/mL) | 3.89 | 106 | 47 | 20 | 9 | 5 | 0.00128 | 0.15 | logD at 1 h ([5]; pH 7.4, log D (7.4)): 3.9; microsomal CLint at 2 µM ([2]; liver microsomes (pooled), pH 7.4): 186 µL/min/mg |
